What is called IC50 is the concentration needed to halve the response being measured.

Experimental findings from patent publication US20240246932A1 (Merck Sharp & Dohme LLC, priority 2021, published 2024) are described below.

This assay concerns the target human NaV 1.8 channels stably expressed in HEK 293 cells (Homo sapiens (Human), UniProt Q9Y5Y9). Briefly: Nav1.8 Qube automated patch-clamp assay. It is filed as cell-based. Conditions: human NaV1.8 in HEK 293 cells, whole-cell voltage clamp, room temperature; read-out: IC50 values (nM) for Examples in the Nav1.8 Qube Assay. How it is done: Compounds were tested on human NaV 1.8 and NaV1.5 channels stably expressed in human embryo kidney (HEK) 293 cells. Sodium current measurements on Qube® were conducted as follows: automated 384-well patch-clamp assays on the Qube® platform (Sophion Biosciences) were used to measure the inhibition of sodium flow through human NaV1.8 and NaV1.5 channels. Whole-cell voltage-clamp recordings were performed in QChips® (Sophion Biosciences) at room temperature. NaV1.8 current measurements on Qube® were obtained as follows: NaV1.8 currents were elicited with a 10 second 1 Hertz (Hz) pulse train from a holding potential of −90 millivolts (mV), delivered to the cells once per minute in the control condition (DMSO only) and after compound addition. The 1 hertz pulse train stimulation consisted of ten test pulses to 10 millivolt (mV) for 20 milliseconds (ms), each of which was followed by a 980 millisecond repolarization to −67 millivolts. At the end of the 10 second pulse train stimulation, a 5 second hyperpolarization step to −100 millivolt (mV) was used to recover NaV1.8 from fast inactivation. The peak currents elicited by the 1st and 10th test pulses were used to determine IC50 values for resting inhibition and inactivated state inhibition. NaV1.5 current measurements on Qube® were obtained as follows: NaV1.5 currents were elicited with a 20 second 3 Hertz pulse train in the control condition (DMSO only) and after compound addition. The pulse train consisted of sixty 20 millisecond test pulses to 0 millivolt from a holding potential of −80 millivolt (mV). The average peak currents elicited by the last 3 test pulses were used to determine IC50 values for NaV1.5 inhibition.
The following buffers were used for the Qube® recordings: External buffer for NaV1.8 Qube® recording: 150 NaCl, 2 CaCl2, 5 KCl, 1 MgCl2, 10 HEPES, 12 Dextrose; External buffer for Qube® NaV1.5 recording: 120 N-Methyl-D-Glucamine, 40 NaCl, 1 KCl, 2.7 CaCl2), 5 HEPES, 0.5 MgCl2; and Internal buffer for Qube® recording: 120 CsF, 30 CsCl, 10 EGTA, 5 HEPES, 5 NaF, 2 MgCl2.
For all Qube® experiments offline analysis was used to determine percent inhibition as a function of drug concentration. IC50 values were determined by fitting to the Hill equation.

Chain of human NaV 1.8 channels stably expressed in HEK 293 cells (Q9Y5Y9 whole entry): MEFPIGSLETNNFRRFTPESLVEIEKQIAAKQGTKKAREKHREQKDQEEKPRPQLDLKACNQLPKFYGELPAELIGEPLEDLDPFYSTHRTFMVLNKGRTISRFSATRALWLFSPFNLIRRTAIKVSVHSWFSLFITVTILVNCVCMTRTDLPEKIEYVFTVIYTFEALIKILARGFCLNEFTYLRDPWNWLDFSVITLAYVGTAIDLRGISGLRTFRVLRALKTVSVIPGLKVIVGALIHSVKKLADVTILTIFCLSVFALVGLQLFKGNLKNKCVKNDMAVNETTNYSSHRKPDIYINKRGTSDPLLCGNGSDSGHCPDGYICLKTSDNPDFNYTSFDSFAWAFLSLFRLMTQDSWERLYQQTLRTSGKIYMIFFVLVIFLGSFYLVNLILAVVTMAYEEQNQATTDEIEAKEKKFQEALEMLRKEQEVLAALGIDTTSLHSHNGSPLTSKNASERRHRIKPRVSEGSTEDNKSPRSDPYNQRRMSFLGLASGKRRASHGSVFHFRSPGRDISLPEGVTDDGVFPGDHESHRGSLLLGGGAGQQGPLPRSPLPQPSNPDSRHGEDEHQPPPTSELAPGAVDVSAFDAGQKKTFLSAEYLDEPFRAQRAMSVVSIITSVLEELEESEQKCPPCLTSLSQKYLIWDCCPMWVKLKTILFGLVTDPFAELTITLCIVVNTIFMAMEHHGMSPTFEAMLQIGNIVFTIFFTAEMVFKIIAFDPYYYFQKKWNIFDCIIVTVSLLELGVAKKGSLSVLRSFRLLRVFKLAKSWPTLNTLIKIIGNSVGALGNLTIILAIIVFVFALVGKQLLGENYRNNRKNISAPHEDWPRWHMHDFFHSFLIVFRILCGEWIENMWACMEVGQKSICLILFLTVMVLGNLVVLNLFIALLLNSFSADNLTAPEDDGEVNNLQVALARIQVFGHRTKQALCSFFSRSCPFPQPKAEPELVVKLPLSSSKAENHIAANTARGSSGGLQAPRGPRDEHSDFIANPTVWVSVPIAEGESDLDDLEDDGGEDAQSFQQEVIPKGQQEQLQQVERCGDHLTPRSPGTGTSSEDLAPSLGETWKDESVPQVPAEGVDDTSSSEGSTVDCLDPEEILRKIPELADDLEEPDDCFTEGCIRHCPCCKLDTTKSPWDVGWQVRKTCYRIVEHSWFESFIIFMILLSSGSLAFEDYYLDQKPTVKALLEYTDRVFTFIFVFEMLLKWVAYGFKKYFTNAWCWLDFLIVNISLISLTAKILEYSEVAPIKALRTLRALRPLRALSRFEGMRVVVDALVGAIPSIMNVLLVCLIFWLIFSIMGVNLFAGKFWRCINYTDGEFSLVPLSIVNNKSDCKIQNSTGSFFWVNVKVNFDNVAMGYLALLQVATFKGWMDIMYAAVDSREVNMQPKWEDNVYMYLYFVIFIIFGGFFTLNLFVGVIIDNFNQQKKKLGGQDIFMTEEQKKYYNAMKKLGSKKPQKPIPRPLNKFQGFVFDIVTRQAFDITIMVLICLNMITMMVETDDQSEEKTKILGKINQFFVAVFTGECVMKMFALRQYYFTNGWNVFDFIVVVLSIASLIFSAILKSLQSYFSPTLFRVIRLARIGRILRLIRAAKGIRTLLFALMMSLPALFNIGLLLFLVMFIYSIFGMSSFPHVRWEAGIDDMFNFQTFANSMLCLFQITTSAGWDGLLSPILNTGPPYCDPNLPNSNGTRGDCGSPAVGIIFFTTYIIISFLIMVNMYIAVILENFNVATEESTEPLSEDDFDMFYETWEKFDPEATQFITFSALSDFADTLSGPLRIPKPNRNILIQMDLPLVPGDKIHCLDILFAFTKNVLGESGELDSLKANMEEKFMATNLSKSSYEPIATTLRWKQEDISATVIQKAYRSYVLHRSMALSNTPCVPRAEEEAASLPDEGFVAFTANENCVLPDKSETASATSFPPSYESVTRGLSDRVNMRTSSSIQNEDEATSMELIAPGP

On to `C[C@@H]1C(=O)NCCN1C(=O)NC(c1ccc(Cl)cc1)c1ccnc(C(F)(F)F)n1` (single isomer, unassigned) [Example 68B], for which the half-inhibitory concentration (IC50) was 761 nM.
In the case of `C[C@@H]1C(=O)NCCN1C(=O)NC(c1ccc(Cl)cc1)c1cccc(C(F)(F)F)n1` (single isomer, unassigned) [Example 9B, (2R)-N-((S or R)-(4-chlorophenyl)(6-(trifluoromethyl)pyridin-2-yl)methyl)-2-methyl-3-oxopiperazine-1-carboxamide], the 50% inhibitory concentration (IC50) stood at 8.03 nM.
As for `C[C@@H]1C(=O)NCCN1C(=O)NC(c1cnc(C(F)(F)F)c(Cl)c1)c1ccc(Cl)c(C(F)(F)F)n1` (single isomer, unassigned) [Example 83A], the figure is 6.51 nM; as for `C[C@@H]1C(=O)NCCN1C(=O)NC(c1ccc(F)c(Cl)c1)c1ccc2nc(C(F)(F)F)cn2c1` (single isomer, unassigned) [Example 11A, (2R)-N-((R or S)-(3-chloro-4-fluoro-phenyl)(2-(trifluoro-methyl)imidazo[1,2-a]pyridin-6-yl)-methyl)-2-methyl-3-oxopiperazine-1-carboxamide], 67.4 nM; as for `C[C@@H]1C(=O)NCCN1C(=O)NC(c1ccc(Cl)cc1)c1ccc(C(F)(F)F)nc1` (single isomer, unassigned) [Example 17B, (2R)-N-((S or R)-(4-chlorophenyl)(6-(trifluoromethyl)pyridin-3-yl)methyl)-2-methyl-3-oxopiperazine-1-carboxamide], 34.6 nM.
Take `C[C@@H]1C(=O)NCCN1C(=O)NC(c1ccc(OC(F)(F)F)nc1)c1ccc(F)c(C(F)(F)F)n1` (single isomer, unassigned) [Example 51A, (2R)-N-((R or S)-(5-fluoro-6-(trifluoromethyl)pyridin-2-yl)(6-(trifluoro-methoxy)pyridin-3-yl)methyl)-2-methyl-3-oxopiperazine-1-carboxamide]: the half-maximal inhibitory concentration (IC50) came to 129 nM.
As for `C[C@@H]1C(=O)NCCN1C(=O)NC(c1ccc(Cl)cc1)c1ccc(OCC(F)(F)F)nc1` (single isomer, unassigned) [Example 5B, (2R)-N-((S or R)-(4-chlorophenyl)(6-(2,2,2-trifluoro-ethoxy)pyridin-3-yl)methyl)-2-methyl-3-oxopiperazine-1-carboxamide], the figure is 28.9 nM; as for `C[C@@H]1C(=O)NCCN1C(=O)NC(c1ccc(Cl)cc1)c1cccc(C(F)(F)F)n1` (single isomer, unassigned) [Example 9A, (2R)-N-((R or S)-(4-chlorophenyl)(6-(trifluoromethyl)pyridin-2-yl)methyl)-2-methyl-3-oxo-piperazine-1-carboxamide], 61.6 nM.
With `O=C1CN(C(=O)NC(c2cnc(C(F)(F)F)c(Cl)c2)c2ccc(F)c(Cl)c2F)CCN1` (single isomer, unassigned) [Example 36, N-((R or S)-(3-chloro-2,4-difluorophenyl)(5-chloro-6-(trifluoro-methyl)pyridin-3-yl)methyl)-3-oxopiperazine-1-carboxamide], the IC50 is 6.97 nM.
As for `C[C@@H]1C(=O)NCCN1C(=O)NC(c1cnc(C(F)(F)F)nc1)c1ccc(F)c(Cl)c1` (single isomer, unassigned) [Example 69B, (2R)-N-((S or R)-(3-chloro-4-fluorophenyl)(2-(trifluoromethyl)pyrimidin-5-yl)methyl)-2-methyl-3-oxopiperazine-1-carboxamide], the figure is 23 nM; as for `O=C1CN(C(=O)NC(c2ccc(OCC(F)(F)F)nc2)c2ccc(F)c(Cl)c2F)CCN1` (single isomer, unassigned) [Example 8B, N-((S or R)-(3-chloro-2,4-difluorophenyl)(6-(2,2,2-trifluoroethoxy)pyridin-3-yl)methyl)-3-oxopiperazine-1-carboxamide], 136 nM; as for `C[C@@H]1C(=O)NCCN1C(=O)NC(c1ccc(C(F)(F)F)nc1)c1ccc(Cl)c(Cl)c1` (single isomer, unassigned) [Example 18B, (2R)-N-((S or R)-(3,4-dichlorophenyl)(6-(trifluoromethyl)pyridin-3-yl)methyl)-2-methyl-3-oxopiperazine-1-carboxamide], 4.69 nM.
As for `C[C@@H]1C(=O)NCCN1C(=O)NC(c1ccc(OC(F)(F)F)cc1)c1ccc(F)c(C(F)(F)F)n1` (single isomer, unassigned) [Example 55A, (2R)-N-((R or S)-(5-fluoro-6-(trifluoro-methyl)pyridin-2-yl)(4-(trifluoromethoxy)phenyl)methyl)-2-methyl-3-oxopiperazine-1-carboxamide], the figure is 2.68 nM; as for `C[C@@H]1C(=O)NCCN1C(=O)NC(c1cnc(OCC(F)(F)F)s1)c1ccc(F)c(Cl)c1F` (single isomer, unassigned) [Example 13B, (2R)-N-((S or R)-(3-chloro-2,4-difluoro-phenyl)(2-(2,2,2-trifluoroethoxy)thiazol-5-yl)methyl)-2-methyl-3-oxopiperazine-1-carboxamide], 9.42 nM; as for `C[C@@H]1C(=O)NCCN1C(=O)NC(c1cnc(C(F)(F)F)c(Cl)c1)c1ccc(F)c(C(F)(F)F)n1` (single isomer, unassigned) [Example 82B], 3.76 nM.
With `C[C@@H]1C(=O)NCCN1C(=O)NC(c1cnc(C(F)(F)F)s1)c1ccc(F)c(Cl)c1F` (single isomer, unassigned) [Example 62A] the figure was 197 nM.
With `C[C@@H]1C(=O)NCCN1C(=O)NC(c1cnc(C(F)(F)F)c(Cl)c1)c1ccc(Cl)c(C#N)c1` (single isomer, unassigned) [Example 23A, (2R)-N-((R or S)-(4-chloro-3-cyano-phenyl)(5-chloro-6-(trifluoromethyl)pyridin-3-yl)methyl)-2-methyl-3-oxopiperazine-1-carboxamide], the IC50 came out at 17 nM.
As for `C[C@@H]1C(=O)NCCN1C(=O)NC(c1ccc(OC(F)F)nc1)c1ccc(F)c(Cl)c1` (single isomer, unassigned) [Example 73A, (2R)-N-((R or S)-(3-chloro-4-fluorophenyl)(6-(difluoromethoxy)pyridin-3-yl)methyl)-2-methyl-3-oxopiperazine-1-carboxamide], the figure is 7.01 nM; as for `C[C@@H]1C(=O)NCCN1C(=O)NC(c1cnc(C2CC2)c(Cl)c1)c1ccc(F)c(Cl)c1F` (single isomer, unassigned) [Example 27A, (2R)-N-((R or S)-(3-chloro-2,4-difluoro-phenyl)(5-chloro-6-cyclopropylpyridin-3-yl)methyl)-2-methyl-3-oxopiperazine-1-carboxamide], 52.6 nM; as for `C[C@@H]1C(=O)NCCN1C(=O)NC(c1ccc(OC(F)(F)F)c(Cl)c1)c1coc(C(F)(F)F)n1` (single isomer, unassigned) [Example 64B, (2R)-N-((S or R)-(3-chloro-4-(trifluoro-methoxy)phenyl)(2-(trifluoromethyl)oxazol-4-yl)methyl)-2-methyl-3-oxopiperazine-1-carboxamide], 3.5 nM.
With `C[C@@H]1C(=O)NCCN1C(=O)NC(c1cnc(C(F)(F)F)nc1)c1ccc(F)c(Cl)c1` (single isomer, unassigned) [Example 69A, (2R)-N-((R or S)-(3-chloro-4-fluorophenyl)(2-(trifluoromethyl)pyrimidin-5-yl)methyl)-2-methyl-3-oxopiperazine-1-carboxamide] the figure was 136 nM.
